Molecules are shown by their SMILES. pIC50: −log10 of the molar value. Where two headings read alike, the source gives them in different places. Where only a bound is given, the exact number is not on record here.

Data on 18 compounds can be found in patent publication US20060142271A1, “Novel lapacho compounds and methods of use thereof” (priority 2002, published 2006).

The subject of data set [1] is HaCaT cells. It is filed as cell-based, human. The following applies: for LDH (mU): human, 2 μM. How it is done: (§1) HaCaT keratinocyte proliferation assay and LDH release were described previously in full detail (Muller et al. J. Med. Chem. 39: 3132-3138, 1996; Müller et al. J. Med. Chem. 37: 1660-1669, 1994). For the cancer cell line studies, exponentially growing cells were seeded at 1,000 cells per well in six-well plates and allowed to attach for 24 h. Compounds of the invention or β-lapachone, solubflized in DMSO, were added to the wells in micromolar concentrations. Control wells were treated with equivalent volumes of DMSO. After 4 h the supernatant was removed and fresh medium was added. Cultures were observed daily for 10-15 days and then were fixed and stained. Colonies of greater than 30 cells were scored as survivors.
The cytotoxicity of naphthoquinones has been thought to result, at least in part, from reactive oxygen species, generated during redox cycling between the […] and reduction products (Munday, R., Free Radic. Biol. Med., 22, 689-695, 1997), which cause peroxidative damage to membrane lipids. To assess the correlation of keratinocyte growth inhibition with membrane damage, the release of lactate dehydrogenase from the treated cells was also quantitated.

Data set [2] concerns HaCaT cells. The data set can be described thus: HaCaT keratinocyte proliferation assay (cell counting). Particulars: for pIC50: antiproliferative activity against HaCaT cells, N = 3, read-out: AA in HaCaT Cells IC50; for inhibition of HaCaT cell proliferation (in words): HaCaT cells. Format: cell-based, human. The protocol:
Anthralin, an antipsoriatic drug, was used as a positive control. Antiproliferative activity was measured directly by counting the dispersed cells under a phase-contrast microscope.
as §1, with “survivors. […]” for “survivors.”

Data set [3] concerns colon cancer cell line SW480. The data set can be described thus: Cancer cell line colony survival assay, SW480. Format: cell-based, human. Particulars: colon cancer cell line SW480, 4 h exposure, colonies after 10-15 days, read-out: AA in Cancer Cell Lines IC50 (μM) SW480. The protocol: as §1
For data set [4], the system named is breast cancer cell line MCF7. The data set can be described thus: Cancer cell line colony survival assay, MCF7. Format: cell-based, human. Particulars: breast cancer cell line MCF7, 4 h exposure, colonies after 10-15 days, read-out: AA in Cancer Cell Lines IC50 (μM) MCF7. How it is done: as §1
For data set [5], the system named is colon cancer cell line DLD1. The data set can be described thus: Cancer cell line colony survival assay, DLD1. Format: cell-based, human. Particulars: colon cancer cell line DLD1, 4 h exposure, colonies after 10-15 days, read-out: AA in Cancer Cell Lines IC50 (μM) DLD1. The protocol: as §1

On to `O=C1c2c(O)cccc2Cc2cccc(O)c21` [anthralin, reference compound], for which, in the data set on HaCaT cells [1], the “LDH release compared to vehicle control (in words)” value is reported as “LDH release significantly higher than vehicle controls” and the “LDH (mU)” value is listed as 294 mU. In the data set with HaCaT cells [2] (Homo sapiens), the pIC50 was 6.15.
Regarding `COc1ccc(C(=O)c2cc3cc4ccccc4cc3s2)cc1` [Compound 62a, (4-Methoxyphenyl)-naphtho[2,3-b]thiophen-2-yl-methanone], the IC50 in data set [3] (Homo sapiens) is above 32 µM; in data set [4] (Homo sapiens), above 32 µM; in data set [5] (Homo sapiens, DLD-1), above 32 µM. In addition, in the data set on HaCaT cells [2] (Homo sapiens), the negative logarithm of the IC50 (pIC50) was below 5.30.
With `COc1ccc(C(=O)c2cc3c(s2)C(=O)c2ccccc2C3=O)cc1` [Compound 62b, 2-(4-Methoxybenzoyl)-naphtho[2,3-b]thiophene-4,9-dione], the IC50 in data set [3] (Homo sapiens) was 16 µM; in data set [4] (Homo sapiens), 3 µM; in data set [5] (Homo sapiens, DLD-1), 5.5 µM. In addition, the pIC50 in the data set with HaCaT cells [2] (Homo sapiens) was below 5.30.
For `COc1ccc(C(=O)c2cc3c(o2)C(=O)c2ccccc2C3=O)cc1OC` [Compound 75b, 2-(3,4-Dimethoxybenzoyl)-naphtho[2,3-b]furan:4,9-dione], the IC50 in data set [5] was found to be 1.4 µM. For the same compound, the pIC50 with HaCaT cells [2] is 5.60.
Turning to `COc1ccc(C(=O)c2cc3c(s2)C(=O)c2ccccc2C3=O)cc1OC` [Compound 65b, 2-(3,4-Dimethoxybenzoyl)-naphtho[2,3-b]thiophene-4,9-dione], the melting point was 212 to 218 °C. Also, in the data set on HaCaT cells [1], the “LDH release compared to vehicle control (in words)” value is “without significant elevation of LDH release over the vehicle control” and the “LDH (mU)” value is 137 mU. Besides, the IC50 in data set [3] (Homo sapiens) stood at 10 µM. The IC50 in data set [4] (Homo sapiens) was at most 1 µM. Besides, the IC50 in data set [5] (Homo sapiens, DLD-1) turned out to be 2.6 µM. Also, the “inhibition of HaCaT cell proliferation (in words)” value (“inhibition” below) with HaCaT cells [2] is “inhibited cell proliferation at concentrations comparable to β-lapachone and the furan analogs”. The pIC50 in the data set on HaCaT cells [2] (Homo sapiens) was 6.10.
`O=C(c1ccccc1)c1cc2c(s1)C(=O)c1ccccc1C2=O` [Compound 64b, 2-Benzoyl-naphtho[2,3-b]thiophene-4,9-dione] yielded a melting point of 158 to 159 °C. Further, in the data set with HaCaT cells [1], the “LDH release compared to vehicle control (in words)” value is “without significant elevation of LDH release over the vehicle control”. For the same compound, the 50% inhibitory concentration (IC50) in data set [3] (Homo sapiens) was determined as 4 µM. In data set [4] (Homo sapiens), the IC50 is at most 1 µM. The IC50 in data set [5] (Homo sapiens, DLD-1) worked out at 1.3 µM. Also, the “inhibition” value in the data set on HaCaT cells [2] is “inhibited cell proliferation at concentrations comparable to β-lapachone and the furan analogs”. In the data set on HaCaT cells [2] (Homo sapiens), the pIC50 is 5.77.
Consider `O=C1c2cccc(O)c2C(=O)c2ccsc21` [Compound 82, 5-Hydroxy-naphtho[2,3-b]thiophene-4,9-dione], for which, in the data set with HaCaT cells [1], the “LDH release compared to vehicle control (in words)” value is reported as “without significant elevation of LDH release over the vehicle control” and the “LDH (mU)” value is given as 117 mU. Besides, in the data set on HaCaT cells [2], the “inhibition” value is “inhibited cell proliferation at concentrations comparable to β-lapachone and the furan analogs”. The pIC50 with HaCaT cells [2] (Homo sapiens) was 6.00.
In turn, `CC(=O)c1cc2c(s1)C(=O)c1ccccc1C2=O` [Compound 63b, 2-Acetyl-naphtho[2,3-b]thiophene-4,9-dione] came in with a melting point of 261 to 262 °C. Moreover, in the data set on HaCaT cells [1], the “LDH (mU)” value is 134 mU. In addition, the IC50 in data set [3] (Homo sapiens) amounted to 4 µM. The IC50 in data set [4] (Homo sapiens) was at most 1 µM. In addition, the IC50 in data set [5] (Homo sapiens, DLD-1) was found to be 1 µM. For the same compound, the pIC50 with HaCaT cells [2] (Homo sapiens) is 6.52.
For `CC(=O)c1cc2cc3ccccc3cc2s1` [Compound 63a, Naphtho[2,3-b]thiophen-2-yl-ethanone], in the data set with HaCaT cells [1], the “LDH release compared to vehicle control (in words)” value is given as “without significant elevation of LDH release over the vehicle control”. Besides, the IC50 in data set [3], in data set [4] and in data set [5] was above 32 µM each time. Also, the “inhibition” value with HaCaT cells [2] is “inhibited cell proliferation at concentrations comparable to β-lapachone and the furan analogs”. Further, the negative logarithm of the IC50 (pIC50) in the data set with HaCaT cells [2] was 5.30.
On to `COc1ccc(C(=O)c2cc3cc4ccccc4cc3o2)cc1OC` [Compound 75a, (3,4-Dimethoxyphenyl)-naphtho[2,3-b]furan-2-yl-methanone], for which the IC50 came out at 30 µM in data set [3] (Homo sapiens); 12 µM in data set [4] (Homo sapiens); 14 µM in data set [5] (Homo sapiens, DLD-1). The pIC50 in the data set on HaCaT cells [2] (Homo sapiens) is below 5.30.
On to `O=C(c1ccc(O)cc1)c1cc2c(s1)C(=O)c1ccccc1C2=O` [Compound 62c, 2-(4-Hydroxybenzoyl)-naphtho[2,3-b]thiophene-4,9-dione], for which, in the data set on HaCaT cells [1], the “LDH (mU)” value is 123 mU. Moreover, the IC50 in data set [3] (Homo sapiens) was 12 µM; in data set [4] (Homo sapiens), 2 µM; in data set [5] (Homo sapiens, DLD-1) it was 5.3 µM. Moreover, the pIC50 in the data set with HaCaT cells [2] (Homo sapiens) was 5.57.
On to `O=C(c1ccc([N+](=O)[O-])cc1)c1cc2cc3ccccc3cc2s1` [Compound 66a, Naphtho[2,3-b]thiophen-2-yl-(4-nitrophenyl)methanone], for which the melting point is 251 to 252 °C. For the same compound, the IC50 in data set [3] (Homo sapiens) was above 32 µM. Also, the IC50 in data set [4] (Homo sapiens) was above 32 µM. Moreover, the IC50 in data set [5] (Homo sapiens, DLD-1) was above 32 µM. Moreover, in the data set on HaCaT cells [2] (Homo sapiens), the pIC50 was below 5.30.
The compound `O=C(c1ccccc1)c1cc2c(o1)C(=O)c1ccccc1C2=O` [Compound 74b, 2-Benzoyl-naphtho[2,3-b]furan-4,9-dione] had a melting point of 198 to 200 °C. Further, the “LDH (mU)” value in the data set on HaCaT cells [1] came out at 222 mU. In addition, the pIC50 in the data set with HaCaT cells [2] (Homo sapiens) is 6.15.
For `CC(=O)Oc1cccc2c1C(=O)c1ccsc1C2=O` [Compound 81, 5-Acetoxy-naphtho[2,3-b]thiophene-4,9-dione], in the data set on HaCaT cells [1], the “LDH release compared to vehicle control (in words)” value was “without significant elevation of LDH release over the vehicle control” and the “LDH (mU)” value amounted to 160 mU. Further, in the data set with HaCaT cells [2], the “inhibition” value was “inhibited cell proliferation at concentrations comparable to β-lapachone and the furan analogs”. For the same compound, the pIC50 in the data set on HaCaT cells [2] (Homo sapiens) was 5.85.
`CC(=O)c1cc2cc3ccccc3cc2o1` [Compound 73a, Naphtho[2,3-b]furan-2-yl-ethanone]: the IC50 in data set [3], in data set [4] and in data set [5] was above 32 µM in each case. Further, the pIC50 in the data set on HaCaT cells [2] is below 5.30.
Take `COc1ccc(C(=O)c2cc3cc4ccccc4cc3s2)cc1OC` [Compound 65a, (3,4-Dimethoxyphenyl)-naphtho[2,3-b]thiophen-2-yl-methanone]: the melting point lay within 175 to 176 °C. The IC50 in data set [3] (Homo sapiens) was above 32 µM. Besides, in data set [4] (Homo sapiens), the IC50 was above 32 µM. Also, the IC50 in data set [5] (Homo sapiens, DLD-1) was above 32 µM. Also, the pIC50 with HaCaT cells [2] (Homo sapiens) was below 5.30.
In the case of `CC(=O)c1cc2c(o1)C(=O)c1ccccc1C2=O` [Compound 6, 2-Acetyl-naphtho[2,3-b]furan4,9-dione], in the data set with HaCaT cells [1], the “LDH release compared to vehicle control (in words)” value is listed as “significant LDH release as compared to vehicle”. In the data set on HaCaT cells [1], the “LDH (mU)” value is recorded as 331 mU. Moreover, the IC50 in data set [3] (Homo sapiens) was at most 1 µM; in data set [4] (Homo sapiens), at most 1 µM; in data set [5] (Homo sapiens, DLD-1), 0.8 µM. Also, the “inhibition” value in the data set with HaCaT cells [2] was “inhibited cell proliferation”. The pIC50 in the data set with HaCaT cells [2] (Homo sapiens) was 6.30.
`O=C(c1ccc([N+](=O)[O-])cc1)c1cc2c(s1)C(=O)c1ccccc1C2=O` [Compound 66b, 2-(4-Nitrobenzoyl)-naphtho[2,3-b]thiophene-4,9-dione] displayed a melting point of 270 °C. Besides, the IC50 in data set [5] (Homo sapiens, DLD-1) came out at 25 µM. For the same compound, the pIC50 in the data set with HaCaT cells [2] (Homo sapiens) was 5.40.

For orientation: pIC50 means the IC50 on a negative log10 scale, so that one unit is a factor of ten. In general, IC50 refers to the point on the concentration scale where inhibition reaches its midpoint. In general, melting point refers to the temperature, or range, at which the solid turns liquid.
